Test results published in PubChem BioAssay AID1963837 (Molecular Pharmacology Branch, DTP, NCI, 2024).

Tested on: 843126-344-R-J1-PDC complex spheroid viability
Assay: Anticancer human tumor 843126-344-R-J1-PDC patient-derived melanoma cell line growth inhibition [POLQ]
Settings: for IC50: curve of first compound; for viability, T/C: stronger effect = lower value
Procedure: Multicellular complex tumor spheroid response to Polymerase (POL) inhibitors (novobiocin, ART-558, RP6685) in combination with a variety of drugs and investigational agents in selected tumor cell lines
The POL inhibitors (novobiocin, ART-558, and RP6685) were evaluated both individually and in combination with standard of care and investigational anticancer small molecules within a complex spheroid model of solid tumors. . Complex spheroids include a stromal component modeled by human endothelial cells (HUVEC) and fibroblasts modeled by human mesenchymal stem cells (MSCs). The concentration ranges selected for each drug and investigational agent were based upon clinically achievable concentrations if the clinical Cmax of the agent was known.
Compounds. The drugs and investigational agents: novobiocin (NSC847541), ART-558 (NSC835418), RP-6685 (NSC848927), peposertib (NSC802822), ceralasertib (NSC780249), elimusertib (NSC800525), camonsertib (NSC841442), AZD-1390 (NSC803789), olaparib (NSC753686), talazoparib (NSC767125), rucaparib (NSC756644), sotorasib (NSC818433), MRTX-1133 (NSC836407), SN-38 (NSC673596), topotecan (NSC609699), epotoside (NSC141540), doxorubicin (NSC123127), gemcitabine (NSC613327), 5-fluorouracil (NSC19893), paclitaxel (NSC125973), vemurafenib (NSC761431), MSA-2 (NSC828583), SN-011 (NSC837082), adavosertib (NSC754352), prexasertib (NSC758257), carboplatin (NSC241240) and oxaliplatin (NSC266046), were obtained from the National Cancer Institute (NCI) Developmental Therapeutics Program Chemical Repository (21). The FDA-approved anticancer drug set is available from the Developmental Therapeutics Program at https://dtp.cancer.gov/organization/dscb/obtaining/. […] The stock solutions were prepared in dimethyl sulfoxide (DMSO, Sigma-Aldrich, St. Louis, MO, cat. D2650), except for the platinum compounds which were prepared in saline (Quality Biological, Gaithersburg, MD, cat. 114-055-101), at 800-fold the tested concentration and stored at -70 degrees C prior to their use. All drugs and investigational agents were tested over a range starting from a high concentration at or near the clinical Cmax and decreasing in half-log increments. If the clinical Cmax for an agent had not been determined, the highest concentration tested was 10 microM, except for SN-38, which was tested at a high concentration of 1 microM.
Cell Culture. All cells were maintained in an incubator at 37 degrees C and 5% CO2 with 95% humidity. The PDC lines were cultured according to standard operating procedures established by the NCI PDMR (https://pdmr.cancer.gov). Table 3 of the manuscript, lists the cell lines along with the number of the three cell types plated to form the mct-spheroids and media for tumor cell growth. After thawing, all PDC lines, except 997537-175-T-J1-PDC and 415267-285-R-J2-PDC, were cultured in Matrigel-coated flasks prepared with a working solution of 1X Ham's F-12 nutrient mix, without supplementation (Thermo Fisher Scientific, cat. 11765054), 100 U/mL penicillin-streptomycin (Thermo Fisher Scientific, cat. 15140122), and 2.5% Matrigel (Corning Inc., Corning, NY, cat. 354248) for the first three passages. The two PDC lines 997537-175-T-J1-PDC and 415267-285-R-J2-PDC were cultured on uncoated flasks. The 857933-349-R-J2-PDC line was cultured in 6C/Colon 1B media containing advanced DMEM/F-12 (Thermo Fisher Scientific, cat. 12634028), 10 mM HEPES (Thermo Fisher Scientific, cat. 15630080), 1X GlutaMAX supplement (Thermo Fisher Scientific, cat. 35050061), 0.1 mg/mL primocin (InvivoGen, San Diego, CA, cat. ant-pm-2), 10% defined fetal bovine serum, heat inactivated (HyClone Laboratories Inc., Logan, UT, cat. SH30070.03HI), 50% L-WRN conditioned media (ATCC, cat. CRL-3276), 1.25 mM N-Acetyl-L-cysteine (Sigma-Aldrich, cat. A9165), 10 mM nicotinamide (Sigma-Aldrich, cat. N0636), 1X B-27 supplement (Thermo Fisher Scientific, cat. 17504044), 1X N-2 supplement (Thermo Fisher Scientific, cat. […]

[1] = second compound 0.0316 µM, first compound 0.0316 µM
[2] = second compound 0.0316 µM, first compound 0.1 µM
[3] = second compound 0.0316 µM, first compound 0.316 µM
[4] = second compound 0.0316 µM, first compound 1 µM
[5] = second compound 0.0316 µM, first compound 3.16 µM
[6] = second compound 0.0316 µM, first compound 10 µM
[7] = second compound 0.1 µM, first compound 0.0316 µM
[8] = second compound 0.1 µM, first compound 0.1 µM
[9] = second compound 0.1 µM, first compound 0.316 µM
[10] = second compound 0.1 µM, first compound 1 µM
[11] = second compound 0.1 µM, first compound 3.16 µM
[12] = second compound 0.1 µM, first compound 10 µM
[13] = second compound 0.316 µM, first compound 0.0316 µM
[14] = second compound 0.316 µM, first compound 0.1 µM
[15] = second compound 0.316 µM, first compound 0.316 µM
[16] = second compound 0.316 µM, first compound 1 µM
[17] = second compound 0.316 µM, first compound 3.16 µM
[18] = second compound 0.316 µM, first compound 10 µM
[19] = second compound 1 µM, first compound 0.0316 µM
[20] = second compound 1 µM, first compound 0.1 µM
[21] = second compound 1 µM, first compound 0.316 µM
[22] = second compound 1 µM, first compound 1 µM
[23] = second compound 1 µM, first compound 3.16 µM
[24] = second compound 1 µM, first compound 10 µM
[25] = second compound 3.16 µM, first compound 0.0316 µM
[26] = second compound 3.16 µM, first compound 0.1 µM
[27] = second compound 3.16 µM, first compound 0.316 µM
[28] = second compound 3.16 µM, first compound 1 µM
[29] = second compound 3.16 µM, first compound 3.16 µM
[30] = second compound 3.16 µM, first compound 10 µM
[31] = second compound 10 µM, first compound 0.0316 µM
[32] = second compound 10 µM, first compound 0.1 µM
[33] = second compound 10 µM, first compound 0.316 µM
[34] = second compound 10 µM, first compound 1 µM
[35] = second compound 10 µM, first compound 3.16 µM
[36] = second compound 10 µM, first compound 10 µM
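Wherever viability, T/C is given: spheroids exposed to drugs for seven days before readout.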

Compound: CC1COCCN1c1cc(-c2ccnn2C)c2ccnc(-c3ccn[nH]3)c2n1 (stereo unspecified) + Cc1cccc(N(C)C(=O)C2C(O)CCN2c2nc(C)cc(C(F)(F)F)c2C#N)c1
- IC50 (second compound 0.0316 µM): 1970 nM
- IC50 (second compound 0.1 µM): 1300 nM
- IC50 (second compound 0.316 µM): 2070 nM
- IC50 (second compound 1 µM): 1580 nM
- IC50 (second compound 3.16 µM): 1660 nM
- IC50 (second compound 10 µM): 1870 nM
- viability, T/C [1]: 85.6%
- viability, T/C [2]: 77.7%
- viability, T/C [3]: 63.8%
- viability, T/C [4]: 55.1%
- viability, T/C [5]: 50.3%
- viability, T/C [6]: 32.7%
- viability, T/C [7]: 80.9%
- viability, T/C [8]: 67.5%
- viability, T/C [9]: 64.2%
- viability, T/C [10]: 52.6%
- viability, T/C [11]: 42.8%
- viability, T/C [12]: 28.4%
- viability, T/C [13]: 87.2%
- viability, T/C [14]: 92.2%
- viability, T/C [15]: 64.7%
- viability, T/C [16]: 63.9%
- viability, T/C [17]: 43%
- viability, T/C [18]: 36.7%
- viability, T/C [19]: 88.1%
- viability, T/C [20]: 85%
- viability, T/C [21]: 68.8%
- viability, T/C [22]: 55.6%
- viability, T/C [23]: 42.6%
- viability, T/C [24]: 33.3%
- viability, T/C [25]: 89%
- viability, T/C [26]: 82.2%
- viability, T/C [27]: 68.7%
- viability, T/C [28]: 54.2%
- viability, T/C [29]: 44.8%
- viability, T/C [30]: 35%
- viability, T/C [31]: 82.5%
- viability, T/C [32]: 83.5%
- viability, T/C [33]: 66%
- viability, T/C [34]: 57.6%
- viability, T/C [35]: 45.1%
- viability, T/C [36]: 33.1%

Compound: CC1COCCN1c1cc(C2(S(C)(=N)=O)CC2)nc(-c2ccnc3[nH]ccc23)n1 (stereo unspecified) + Cc1cccc(N(C)C(=O)C2C(O)CCN2c2nc(C)cc(C(F)(F)F)c2C#N)c1
- IC50 (second compound 0.0316 µM): > 10000 nM
- IC50 (second compound 0.1 µM): > 10000 nM
- IC50 (second compound 0.316 µM): > 10000 nM
- IC50 (second compound 1 µM): > 10000 nM
- IC50 (second compound 3.16 µM): > 10000 nM
- IC50 (second compound 10 µM): > 10000 nM
- viability, T/C [1]: 102%
- viability, T/C [2]: 80.2%
- viability, T/C [3]: 74.1%
- viability, T/C [4]: 84.5%
- viability, T/C [5]: 76.2%
- viability, T/C [6]: 51.1%
- viability, T/C [7]: 91.3%
- viability, T/C [8]: 87.6%
- viability, T/C [9]: 97.2%
- viability, T/C [10]: 81.5%
- viability, T/C [11]: 79.3%
- viability, T/C [12]: 55.8%
- viability, T/C [13]: 81.6%
- viability, T/C [14]: 107%
- viability, T/C [15]: 76.6%
- viability, T/C [16]: 80.3%
- viability, T/C [17]: 66.6%
- viability, T/C [18]: 58.5%
- viability, T/C [19]: 94.1%
- viability, T/C [20]: 86.7%
- viability, T/C [21]: 90.6%
- viability, T/C [22]: 82.4%
- viability, T/C [23]: 65.8%
- viability, T/C [24]: 57.6%
- viability, T/C [25]: 93.9%
- viability, T/C [26]: 95.1%
- viability, T/C [27]: 111%
- viability, T/C [28]: 83.7%
- viability, T/C [29]: 78.4%
- viability, T/C [30]: 54.5%
- viability, T/C [31]: 81.1%
- viability, T/C [32]: 70%
- viability, T/C [33]: 91%
- viability, T/C [34]: 83.3%
- viability, T/C [35]: 72.2%
- viability, T/C [36]: 55.3%

Compound: COc1cccc(OCCCN)c1-c1cc(Nc2cnc(C#N)cn2)n[nH]1 + Cc1cccc(N(C)C(=O)C2C(O)CCN2c2nc(C)cc(C(F)(F)F)c2C#N)c1
- IC50 (second compound 0.0316 µM): 96.1 nM
- IC50 (second compound 0.1 µM): 82.4 nM
- IC50 (second compound 0.316 µM): 157 nM
- IC50 (second compound 1 µM): 125 nM
- IC50 (second compound 3.16 µM): 79.9 nM
- IC50 (second compound 10 µM): 81.2 nM
- viability, T/C (second compound 0.0316 µM, first compound 0.00316 µM): 96.8%
- viability, T/C (second compound 0.0316 µM, first compound 0.01 µM): 75.1%
- viability, T/C [1]: 63.5%
- viability, T/C [2]: 48.8%
- viability, T/C [3]: 40.5%
- viability, T/C [4]: 34.3%
- viability, T/C (second compound 0.1 µM, first compound 0.00316 µM): 102%
- viability, T/C (second compound 0.1 µM, first compound 0.01 µM): 71.6%
- viability, T/C [7]: 61.1%
- viability, T/C [8]: 48%
- viability, T/C [9]: 42.6%
- viability, T/C [10]: 38.2%
- viability, T/C (second compound 0.316 µM, first compound 0.00316 µM): 90%
- viability, T/C (second compound 0.316 µM, first compound 0.01 µM): 75.9%
- viability, T/C [13]: 59.8%
- viability, T/C [14]: 59%
- viability, T/C [15]: 43.3%
- viability, T/C [16]: 34.4%
- viability, T/C (second compound 1 µM, first compound 0.00316 µM): 92.9%
- viability, T/C (second compound 1 µM, first compound 0.01 µM): 72.1%
- viability, T/C [19]: 62.4%
- viability, T/C [20]: 54.7%
- viability, T/C [21]: 42.3%
- viability, T/C [22]: 32.7%
- viability, T/C (second compound 3.16 µM, first compound 0.00316 µM): 98.3%
- viability, T/C (second compound 3.16 µM, first compound 0.01 µM): 77.3%
- viability, T/C [25]: 58.3%
- viability, T/C [26]: 47.5%
- viability, T/C [27]: 41.7%
- viability, T/C [28]: 33.8%
- viability, T/C (second compound 10 µM, first compound 0.00316 µM): 108%
- viability, T/C (second compound 10 µM, first compound 0.01 µM): 67.4%
- viability, T/C [31]: 64.3%
- viability, T/C [32]: 48.9%
- viability, T/C [33]: 42.5%
- viability, T/C [34]: 40.4%
